Literature values, collected in US8541025B2, “Co-crystals and pharmaceutical formulations comprising the same” (Vertex Pharmaceuticals Incorporated, priority 2008, dated 2013).
Read-outs that look alike come from different tables or passages of the source.

Target: hepatitis C virus ("HCV") NS3/4A protease (Hepatitis C virus genotype 1a, UniProt P27958)
Sequence (P27958 1027-1657): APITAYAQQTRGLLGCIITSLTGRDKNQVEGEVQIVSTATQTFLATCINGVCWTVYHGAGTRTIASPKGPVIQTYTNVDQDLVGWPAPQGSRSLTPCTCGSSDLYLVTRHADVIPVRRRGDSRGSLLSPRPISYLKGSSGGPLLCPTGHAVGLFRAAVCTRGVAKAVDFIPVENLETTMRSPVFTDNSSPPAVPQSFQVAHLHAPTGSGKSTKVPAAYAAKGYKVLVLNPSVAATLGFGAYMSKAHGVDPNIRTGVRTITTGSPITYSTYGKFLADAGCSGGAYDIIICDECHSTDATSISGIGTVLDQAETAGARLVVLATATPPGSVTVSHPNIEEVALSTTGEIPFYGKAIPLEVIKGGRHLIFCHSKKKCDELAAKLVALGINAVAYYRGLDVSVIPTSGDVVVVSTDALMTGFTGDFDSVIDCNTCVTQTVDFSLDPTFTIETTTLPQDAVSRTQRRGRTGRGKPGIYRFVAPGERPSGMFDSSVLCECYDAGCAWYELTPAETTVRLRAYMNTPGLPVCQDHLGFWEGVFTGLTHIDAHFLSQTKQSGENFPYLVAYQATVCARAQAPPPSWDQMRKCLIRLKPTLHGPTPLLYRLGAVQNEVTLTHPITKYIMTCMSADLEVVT
Sequence (P27958 1658-1711): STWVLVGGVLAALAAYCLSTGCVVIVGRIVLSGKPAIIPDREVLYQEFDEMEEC

In the case of `CC[C@H](NC(=O)[C@@H]1[C@H]2CCC[C@H]2CN1C(=O)[C@@H](NC(=O)C(NC(=O)c1cnccn1)C1CCCCC1)C(C)(C)C)C(=O)C(=O)NC1CC1` (some centres unmarked) [VX-950], the Ki (competitive, reversible inhibitor, read-out: steady state binding constant (ki*)) is given as 3 nM and the Ki (read-out: Ki) is given as 8 nM.
